≈ marks a conversion by molar mass, not a printed value.
Legend:
mice = assay: Acute toxicity in mice; type: in vivo
Procedure: Acute toxicity (LD50) in mice; approximately 400 mg/kg (i.p.), and over 1000 mg/kg (p.o.)

leukemia P388 = assay: Antitumor activity on leukemia P388; details: i.p.; for ILS (Increased life span) P388: vs untreated control
Pseudomonas aeruginosa = assay: Antimicrobial activity, MIC by agar dilution method; type: cell-based
Alternaria kikuchiana = assay: as above; type: cell-based
Escherichia coli NIHJ = assay: as above; type: cell-based
[1] = system: Ehrlich ascites carcinoma; assay: Antitumor activity on Ehrlich ascites carcinoma; details: i.p.; for ILS (Increased life span) Ehrlich: vs untreated control
[2] = system: Staphylococcus aureus FDA-209P; assay: Antimicrobial activity, MIC by agar dilution method; type: cell-based
Saccharomyces sake = assay: as above; type: cell-based
[3] = system: Bacillus subtilis PCI 219; assay: as above; type: cell-based; details: Bacillus subtilis PCI 219, agar dilution method
Xanthomonas oryzae = type: cell-based; details: agar dilution method
[4] = system: Trichophyton interdigitalis; assay: Antimicrobial activity, MIC by agar dilution method; type: cell-based
Piricularia oryzae = type: cell-based
Sarcina lutea ATCC 1001 = assay: Antimicrobial activity, MIC by agar dilution method; type: cell-based; details: Sarcina lutea ATCC 1001, agar dilution method
Microsporum gypseum = assay: as above; type: cell-based
Aspergillus niger = assay: as above; type: cell-based
Mycobacterium smegmatis = assay: as above; type: cell-based
Candida albicans = assay: as above; type: cell-based
[5] = Day 1, 75 mg/kg/day, total 75 mg/kg
[6] = Day 1, 150 mg/kg/day, total 150 mg/kg
[7] = Day 1, 300 mg/kg/day, total 300 mg/kg
[8] = Days 1, 5, 9, 25 mg/kg/day, total 75 mg/kg
[9] = Days 1, 5, 9, 50 mg/kg/day, total 150 mg/kg
[10] = Days 1~9, 8.8 mg/kg/day, total 75 mg/kg
[11] = Days 1~9, 16.7 mg/kg/day, total 150 mg/kg
[12] = Days 1~9, 33.3 mg/kg/day, total 300 mg/kg

In the case of `CO[C@H]1C[C@@H]2\C=C(C)/C=C/C=C\C(=O)N[C@H](c3ccccc3)C/C=C/CC[C@H](O)CC(=O)C2=C1O` [stubomycin], the “Acute toxicity (LD50)” value (mice; i.p.) is reported as “approximately 400 mg/kg”, the “Acute toxicity (LD50)” value (mice; p.o.) is reported as “over 1000 mg/kg” and the “MSD (Median survival day) P388” value (leukemia P388; [5]) is reported as 17 days. The “ILS (Increased life span) P388” value (leukemia P388; [5]) was 42%, the “MSD (Median survival day) P388” value (leukemia P388; [6]) was 17 days and the “ILS (Increased life span) P388” value (leukemia P388; [6]) was 42%. For the same molecule, the “MSD (Median survival day) P388” value (leukemia P388; [7]) was 17 days, the “ILS (Increased life span) P388” value (leukemia P388; [7]) was 42% and the “MSD (Median survival day) P388” value (leukemia P388; [8]) was 16 days. The “ILS (Increased life span) P388” value (leukemia P388; [8]) was 33%, the “MSD (Median survival day) P388” value (leukemia P388; [9]) was 15 days and the “ILS (Increased life span) P388” value (leukemia P388; [9]) was 25%. The “MSD (Median survival day) P388” value (leukemia P388; [10]) was 15 days, the “ILS (Increased life span) P388” value (leukemia P388; [10]) was 25% and the “MSD (Median survival day) P388” value (leukemia P388; [11]) was 11 days. The “ILS (Increased life span) P388” value (leukemia P388; [11]) was -8%, the “MSD (Median survival day) P388” value (leukemia P388; [12]) was 9 days and the “ILS (Increased life span) P388” value (leukemia P388; [12]) was -25%. The “Minimum inhibitory concentration (MIC)” value (Pseudomonas aeruginosa) was over 200 µg/mL, the “Minimum inhibitory concentration (MIC)” value (Alternaria kikuchiana) was 6.3 µg/mL (≈ 13.2 µM) and the “Minimum inhibitory concentration (MIC)” value (Escherichia coli NIHJ) was over 200 µg/mL. For the same molecule, the “MSD (Median survival day) Ehrlich” value [1, 5] was 28 days, the “Number of cured mice, Ehrlich” value [1, 5] was 1 and the “ILS (Increased life span) Ehrlich” value [1, 5] was 47%. For the same molecule, the “MSD (Median survival day) Ehrlich” value [1, 6] was 51 days, the “ILS (Increased life span) Ehrlich” value [1, 6] was 168% and the “MSD (Median survival day) Ehrlich” value [1, 7] was 21 days. For the same molecule, the “ILS (Increased life span) Ehrlich” value [1, 7] was 11%, the “MSD (Median survival day) Ehrlich” value [1, 8] was 33 days and the “Number of cured mice, Ehrlich” value [1, 8] was 1. The “ILS (Increased life span) Ehrlich” value [1, 8] was 74%, the “MSD (Median survival day) Ehrlich” value [1, 9] was 16 days and the “ILS (Increased life span) Ehrlich” value [1, 9] was -16%. The “ILS (Increased life span) Ehrlich” value [1, 10] was 11%, the “MSD (Median survival day) Ehrlich” value [1, 11] was 50 days and the “Number of cured mice, Ehrlich” value [1, 11] was 1. For the same molecule, the “ILS (Increased life span) Ehrlich” value [1, 11] was 163%, the “MSD (Median survival day) Ehrlich” value [1, 12] was 33 days and the “Number of cured mice, Ehrlich” value [1, 12] was 1. For the same molecule, the “ILS (Increased life span) Ehrlich” value [1, 12] was 74%, the “MSD (Median survival day) Ehrlich” value ([1]; Days 1~9, total 75 mg/kg) was 21 days and the “Minimum inhibitory concentration (MIC)” value [2] was 3.1 µg/mL (≈ 6.49 µM). The “Minimum inhibitory concentration (MIC)” value (Saccharomyces sake) was over 200 µg/mL, the “Minimum inhibitory concentration (MIC)” value [3] was 0.4 µg/mL (≈ 0.838 µM) and the “Minimum inhibitory concentration (MIC)” value (Xanthomonas oryzae) was over 100 µg/mL. The “Minimum inhibitory concentration (MIC)” value [4] was 6.3 µg/mL (≈ 13.2 µM), the “Minimum inhibitory concentration (MIC)” value (Piricularia oryzae) was 3.1 µg/mL (≈ 6.49 µM) and the “Minimum inhibitory concentration (MIC)” value (Sarcina lutea ATCC 1001) was 0.4 µg/mL (≈ 0.838 µM). For the same molecule, the “Minimum inhibitory concentration (MIC)” value (Microsporum gypseum) was 12.5 µg/mL (≈ 26.2 µM), the “Minimum inhibitory concentration (MIC)” value (Aspergillus niger) was over 100 µg/mL and the “Minimum inhibitory concentration (MIC)” value (Mycobacterium smegmatis) was 3.1 µg/mL (≈ 6.49 µM). The “Minimum inhibitory concentration (MIC)” value (Candida albicans) was over 100 µg/mL.

Source: patent US4512976A, “Antibiotic stubomycin and process for the production thereof” (The Kitasato Institute, priority 1980, dated 1985)
